The test system of assay [1] is McIntosh apples, browning. The experiment in a line: Inhibition of browning in apples by Formula V and YM5 eluate. The conditions noted are these: lactose 9.0%, 1,4-diaminobutane 5 mM. The procedure:
Two fresh and unbruised whole McIntosh apples, held at ambient temperature,were sliced with a stainless steel paring knife into quarters, cored, then cut into 1/4-inch slices. A volume of 0.8 mL of each of the treatment solutions listed in Table 5 at ambient temperature was applied onto the top exposed surface of freshly cut white slices, triplicate samples per treatment. […] Following application, the slices stood at ambient temperature, exposed to air and light, for periodic visual observation of relative rate and extent of browning, from 15 minutes to 4 hours.

Assay [2] deals with PPO (mushroom). The experiment in a line: Inhibition of PPO by various resorcinol derivatives (linear spectrophotometric assay). Type of assay: biochemical. The conditions noted are these: 0.133 mM L-DOPA, pH 6.5, 25° C., 475 nm, read-out: I50 (apparent inhibition constant). The method, then:
In order to determine the effect of various resorcinol compounds on the inhibition of PPO (mushroom), a linear spectrophotmetric assay system similar to that described in Example 1 was used. The assay mixture consisted of:
5 mM sodium phosphate, pH 6.5;
0.133 mM L-dihydroxyphenylalanine (L-DOPA); PPO (mushroom); and
+/- varied concentrations of the compound to be tested
The rate of the reaction was monitored by measuring the change in absorbance per minute at 475 nm at 25° C.
I50 represents the concentration of inhibitor necessary to obtain fifty (50%) percent inhibition of the enzyme.

Assay [3] deals with pink shrimp melanosis. Put plainly: Effect of 4-hexylresorcinol, Formula VI and Formula IV compounds on development of shrimp melanosis. Also noted: species or system Penaeus duorarum. The method, then:
In one embodiment of the present invention, pink shrimp were treated with an aqueous solution of the compound of Formula II. Formula II was used at concentrations ranging from 0.0001 to 0.005%, and compared to shrimp treated with sodium bisulfite and sea water. The sea water treated shrimp developed melanosis spots within 1-2 days. […] A concentration of up to about 0.1% of Formula II can be used for inhibiting browning.
Harvests were arranged such that fresh, heads-on pink shrimp were obtained within less than 12 hours post-harvest at the dock. All shrimp were routinely washed on-board and temporarily stored in ice. The basic procedure was to rinse 400-600 grams of shrimp in 2.5 liters of variable dip compositions and concentrations for 1 minute then drain and package in plastic bags to be stored in ice. The bags were considered necessary to eliminate the variable influence of melting ice. Iced containers with packaged shrimp were stored in 35° F. (1.7° C.) refrigeration with reicing every other day.
Development of melanosis was scored and photographed routinely during 2 weeks of storage. The bags of shrimp had been numbered such that the investigator could not distinguish amongst the various treatments. One experienced investigator did all scoring relative to the aforementioned scale (Table 2). The scale was accompanied by pre-developed color prints depicting common examples of the advancing stages for melanosis. The intent was to screen for obvious differences between treatments, thus selecting the best treatments for subsequent tests with statistical evaluations.
Pink shrimp were treated and evaluated as described in Example 8 except that the compound of Formula II (4-hexylresorcinol, Sigma Chemical Co.) was substituted for the Formula V compound. Pink shrimp were dipped into solutions of 0.0001-0.005% of the Formula II compound and stored as described above.
Pink shrimp were treated and evaluated as described in Example 8 except that the compound of Formula VI (see Example 6) was substituted for the Formula V compound. Pink shrimp were dipped into solutions of 0.001-0.025%of the Formula VI compound and stored as described above.
Pink shrimp were treated and evaluated as described in Example 8 except that the compound of Formula IV (2,4-dihydroxyphenylpropionic acid) was substituted for the Formula V compound. Pink shrimp were dipped into solutions of 0.001-0.1% the Formula IV compound and stored as described above.

For assay [4], the system named is fresh pink shrimp (Penaeus duorarum) melanosis. Put plainly: Effect of Formula V compound on fresh pink shrimp melanosis. The procedure:
Pink shrimp (Penaeus duorarum) were treated and evaluated as described in Example 8 except that the experiment was carried out on a shrimp boat with freshly caught shrimp. The shrimp were not frozen prior to treatment with various concentrations of the compound of Formula V. All solutions were prepared in sea water.
Fresh pink shrimp were treated and evaluated as described in Example 12. The shrimp treated with 0.025% of the compound of Formula V were stored directly or following a sea water rinse, post-treatment.
Fresh pink shrimp were treated and evaluated as described in Example 12. The shrimp were dipped in a 0.01% solution of the compound of Formula V made up in either sea or fresh water.
Fresh pink shrimp were treated and evaluated as described in Example 12. In this example, different one pound batches of shrimp were dipped into the same one liter solution of 0.01% of the Formula V compound for one minute each. A total of eight dips were performed.

The test system of assay [5] is PPO in peaches. The conditions noted are these: Wong et al. 1971; cited from earlier work.
Assay [6] has as its system mushroom PPO (catecholase). The conditions noted are these: Kuttner and Wagreich 1952; cited from earlier work.

Molecules are shown by their SMILES.

In the case of `NCCCCN` [1,4-diaminobutane], the “prevention of browning of apples, conclusion” value in assay [1] is “did not prevent browning”.

With `O=C(O)c1ccc(O)cc1O` [4-Carboxyresorcinol, 2,4-Dihydroxybenzoic Acid], in assay [2], the IC50 was found to be 150 µM.

Take `Oc1ccc(C2CCCCC2)c(O)c1` [4-Cyclohexylresorcinol]: the IC50 in assay [2] worked out at 0.2 µM.

Regarding `CCCCCCCCCCCCc1ccc(O)cc1O` [4-Dodecylresorcinol], the IC50 in assay [2] turned out to be 0.3 µM.

Take `CCc1ccc(O)cc1O` [4-Ethylresorcinol]: in assay [2], the IC50 worked out at 0.8 µM.

For `CCCCCC(=O)c1ccc(O)cc1O` [4-Hexanoylresorcinol], the IC50 in assay [2] amounted to 750 µM.

`CCCc1ccc(O)cc1O` [4-n-Propylresorcinol]: the IC50 in assay [2] was 1.8 µM.

Consider `CCCCCCc1ccc(O)cc1O` [Formula II, 4-hexylresorcinol], for which the IC50 in assay [2] turned out to be 0.5 µM. Moreover, the “inhibiting browning of shrimp on a weight basis vs sodium bisulfite” value in assay [3] (0.0001 to 0.005% (FIG. 10)) was “more effective on a weight basis than sodium bisulfite”. The “inhibiting shrimp melanosis vs sodium bisulfite” value in assay [3] (0.005% by weight vs 1.25% by weight bisulfite (FIG. 10)) was “almost as effective in inhibiting shrimp melanosis as a solution of 1.25% by weight bisulfite”. Also, the “lowest concentration inhibiting formation of shrimp melanosis (potent inhibitor at concentrations as low as)” value in assay [3] (FIG. 10, tested 0.0001-0.005%) came out at 0.0005%.

With `O=C(O)CCc1ccc(O)cc1O` [Formula IV, 2,4-dihydroxyphenylpropionic acid], the “lowest concentration inhibiting formation of shrimp melanosis (inhibitor at concentrations as low as)” value in assay [3] (FIG. 12, tested 0.001-0.1%) is recorded as 0.05%.

As to `NCCCCNC(=O)CCc1ccc(O)cc1O` [Formula V, 2,4-dihydroxyphenylpropionyldiaminobutane], the “effect of fresh or sea water as solvent on inhibition of shrimp melanosis (FIG. 8)” value in assay [4] (0.01%) is “no significant effect”. In addition, in assay [4] (0.025%), the “effect of post-treatment sea water rinse on inhibition of shrimp melanosis (FIG. 7)” value is reported as “no significant effect”.

Take `O=C(CCc1ccc(O)cc1O)NCCCCNC(=O)CCc1ccc(O)cc1O` [Formula VI, bis-2,4-dihydroxyphenylpropionyldiaminobutane]: the IC50 in assay [2] worked out at 5 µM. In addition, in assay [3] (FIG. 11, tested 0.001-0.025%), the “lowest concentration inhibiting formation of shrimp melanosis (potent inhibitor at concentrations as low as)” value was determined as 0.005%.

For `O=C(CCc1ccc(O)cc1O)NCCCCNCCCNC(=O)CCc1ccc(O)cc1O` [Formula VII, bis-2,4-dihydroxyphenylpropionylspermidine], the IC50 in assay [2] is 5 µM.

Consider `OC[C@H]1O[C@@H](O[C@H]2[C@H](O)[C@@H](O)C(O)O[C@@H]2CO)[C@H](O)[C@@H](O)[C@H]1O` (stereo partly shown) [Lactose], for which the “prevention of browning of apples, conclusion” value in assay [1] is listed as “did not prevent browning”.

`Oc1cccc(O)c1` [Resorcinol, 1,3-dihydroxybenzene]: in assay [2], the IC50 turned out to be 2700 µM. In assay [5], the “reaction with 4-methyl-o-quinone formed by PPO in peaches” value (shortened to “reaction with 4-methyl-o-quinone formed”) is reported as “react with 4-methyl-o-quinone” and the “substrate for PPO” value is listed as “not substrates for PPO”.

In the case of `O=C(O)c1ccccc1` [benzoic acid], the “inhibition of mushroom PPO (catecholase)” value in assay [6] is given as “inhibited”.

For `Oc1cc(O)c2c(c1)O[C@H](c1ccc(O)c(O)c1)[C@@H](O)C2` [d-catechin], in assay [5], the “reaction with 4-methyl-o-quinone formed” value is given as “react with 4-methyl-o-quinone” and the “substrate for PPO” value is listed as “not substrates for PPO”.

For `Cc1cc(O)cc(O)c1` [orcinol], in assay [5], the “reaction with 4-methyl-o-quinone formed” value was “react with 4-methyl-o-quinone” and the “substrate for PPO” value was “not substrates for PPO”.

Consider `Oc1cc(O)cc(O)c1` [phloroglucinol], for which, in assay [5], the “reaction with 4-methyl-o-quinone formed” value is on record as “react with 4-methyl-o-quinone” and the “substrate for PPO” value was “not substrates for PPO”.
